According to patent publication US20100190755A1, “TETRACYCLINE COMPOUNDS FOR THE TREATMENT OF RHEUMATOID ARTHRITIS AND RELATED METHODS OF TREATMENT” (priority 2008, published 2010):
Values after ≈ are worked out from the molar mass of the structure shown.

Tested on: S. aureus RN450
Test: Antibacterial activity MIC, Gram+ (Table 9)
Format: cell-based
Conditions: Staphylococcus aureus, CAMHB, 35° C., approximately 18 hr
Description: (§1) 2 mg of each compound is dissolved in 100 μl of DMSO. The solution is then added to cation-adjusted Mueller Hinton broth (CAMHB), which results in a final compound concentration of 200 μg per ml. The tetracycline compound solutions are diluted to 50 μL volumes, with a test compound concentration of 0.098 μg/ml. Optical density (OD) determinations are made from fresh log-phase broth cultures of the test strains. Dilutions are made to achieve a final cell density of 1×10^6 CFU/ml. At OD=1, cell densities for different genera should be approximately:
(§2) 50 μl of the cell suspensions are added to each well of microtiter plates. The final cell density should be approximately 5×10^5 CFU/ml. These plates are incubated at 35° C. in an ambient air incubator for approximately 18 hr. The plates are read with a microplate reader and are visually inspected when necessary. The MIC is defined as the lowest concentration of the tetracycline compound that inhibits growth.

SMILES | MIC [mg/L]
CCOC(=O)c1cc(N(C)C)c2c(c1O)C(=O)C1=C(O)[C@]3(O)C(=O)C(C(N)=O)=C(O)C[C@@H]3C[C@@H]1C2 [AA] | 2 (≈ 4.11 µM)
CN(C)c1cc(-c2cnoc2)c(O)c2c1C[C@H]1C[C@H]3CC(O)=C(C(N)=O)C(=O)[C@@]3(O)C(O)=C1C2=O [AB] | 0.5 (≈ 1.04 µM)
CN(C)c1cc(-c2ccn[nH]2)c(O)c2c1C[C@H]1C[C@H]3CC(O)=C(C(N)=O)C(=O)[C@@]3(O)C(O)=C1C2=O [AC] | 2 (≈ 4.16 µM)
CO/N=C(/C)c1cc(N(C)C)c2c(c1O)C(=O)C1=C(O)[C@]3(O)C(=O)C(C(N)=O)=C(O)C[C@@H]3C[C@@H]1C2 [AD] | 2 (≈ 4.12 µM)
CN(C)c1cc(-c2cccnc2)c(O)c2c1C[C@H]1C[C@H]3CC(O)=C(C(N)=O)C(=O)[C@@]3(O)C(O)=C1C2=O [AE] | 1 (≈ 2.03 µM)
CN(C)c1cc(-c2ccco2)c(O)c2c1C[C@H]1C[C@H]3CC(O)=C(C(N)=O)C(=O)[C@@]3(O)C(O)=C1C2=O [AG] | 0.25 (≈ 0.52 µM)
CN(C)c1cc(C(=O)NC(C)(C)C)c(O)c2c1C[C@H]1C[C@H]3CC(O)=C(C(N)=O)C(=O)[C@@]3(O)C(O)=C1C2=O [AH] | 1 (≈ 1.95 µM)
CN(C)c1cc(C(=O)Nc2ccccc2)c(O)c2c1C[C@H]1C[C@H]3CC(O)=C(C(N)=O)C(=O)[C@@]3(O)C(O)=C1C2=O [AI] | 0.12 (≈ 0.225 µM)
CN(C)c1cc(-c2nccs2)c(O)c2c1C[C@H]1C[C@H]3CC(O)=C(C(N)=O)C(=O)[C@@]3(O)C(O)=C1C2=O [AJ] | 0.25 (≈ 0.502 µM)
CN(C)c1cc(C(=O)OCCO)c(O)c2c1C[C@H]1C[C@H]3CC(O)=C(C(N)=O)C(=O)[C@@]3(O)C(O)=C1C2=O [AK] | > 64
CCC(=O)c1cc(N(C)C)c2c(c1O)C(=O)C1=C(O)[C@]3(O)C(=O)C(C(N)=O)=C(O)C[C@@H]3C[C@@H]1C2 [AL] | 1 (≈ 2.13 µM)
Cc1cc(N(C)C)c2c(c1O)C(=O)C1=C(O)[C@]3(O)C(=O)C(C(N)=O)=C(O)C[C@@H]3C[C@@H]1C2 [AM] | 2 (≈ 4.67 µM)
CN(C)c1cc(-c2ccccc2)c(O)c2c1C[C@H]1C[C@H]3CC(O)=C(C(N)=O)C(=O)[C@@]3(O)C(O)=C1C2=O [AN] | 1 (≈ 2.04 µM)
COCCOC(=O)c1cc(N(C)C)c2c(c1O)C(=O)C1=C(O)[C@]3(O)C(=O)C(C(N)=O)=C(O)C[C@@H]3C[C@@H]1C2 [AO] | 16 (≈ 31 µM)
CN(C)c1cc(C2=CCCCO2)c(O)c2c1C[C@H]1C[C@H]3CC(O)=C(C(N)=O)C(=O)[C@@]3(O)C(O)=C1C2=O [AP] | 4 (≈ 8.06 µM)
CC(C)c1noc(-c2cc(N(C)C)c3c(c2O)C(=O)C2=C(O)[C@]4(O)C(=O)C(C(N)=O)=C(O)C[C@@H]4C[C@@H]2C3)n1 [AR] | 0.5 (≈ 0.953 µM)
CN(C)c1cc(-c2ccnn2C)c(O)c2c1C[C@H]1C[C@H]3CC(O)=C(C(N)=O)C(=O)[C@@]3(O)C(O)=C1C2=O [AS] | 1 (≈ 2.02 µM)

Tested on: E. coli 25922
Test: Antibacterial activity MIC, Gram- (Table 9)
Format: cell-based
Conditions: Escherichia coli, CAMHB, 35° C., approximately 18 hr
Description: as §1, §2

SMILES | MIC [mg/L]
CCOC(=O)c1cc(N(C)C)c2c(c1O)C(=O)C1=C(O)[C@]3(O)C(=O)C(C(N)=O)=C(O)C[C@@H]3C[C@@H]1C2 [AA] | > 64
CN(C)c1cc(-c2cnoc2)c(O)c2c1C[C@H]1C[C@H]3CC(O)=C(C(N)=O)C(=O)[C@@]3(O)C(O)=C1C2=O [AB] | > 64
CN(C)c1cc(-c2ccn[nH]2)c(O)c2c1C[C@H]1C[C@H]3CC(O)=C(C(N)=O)C(=O)[C@@]3(O)C(O)=C1C2=O [AC] | > 64
CO/N=C(/C)c1cc(N(C)C)c2c(c1O)C(=O)C1=C(O)[C@]3(O)C(=O)C(C(N)=O)=C(O)C[C@@H]3C[C@@H]1C2 [AD] | > 64
CN(C)c1cc(-c2cccnc2)c(O)c2c1C[C@H]1C[C@H]3CC(O)=C(C(N)=O)C(=O)[C@@]3(O)C(O)=C1C2=O [AE] | > 64
CN(C)c1cc(-c2ccco2)c(O)c2c1C[C@H]1C[C@H]3CC(O)=C(C(N)=O)C(=O)[C@@]3(O)C(O)=C1C2=O [AG] | > 64
CN(C)c1cc(C(=O)NC(C)(C)C)c(O)c2c1C[C@H]1C[C@H]3CC(O)=C(C(N)=O)C(=O)[C@@]3(O)C(O)=C1C2=O [AH] | > 64
CN(C)c1cc(C(=O)Nc2ccccc2)c(O)c2c1C[C@H]1C[C@H]3CC(O)=C(C(N)=O)C(=O)[C@@]3(O)C(O)=C1C2=O [AI] | > 64
CN(C)c1cc(-c2nccs2)c(O)c2c1C[C@H]1C[C@H]3CC(O)=C(C(N)=O)C(=O)[C@@]3(O)C(O)=C1C2=O [AJ] | > 64
CN(C)c1cc(C(=O)OCCO)c(O)c2c1C[C@H]1C[C@H]3CC(O)=C(C(N)=O)C(=O)[C@@]3(O)C(O)=C1C2=O [AK] | > 64
CCC(=O)c1cc(N(C)C)c2c(c1O)C(=O)C1=C(O)[C@]3(O)C(=O)C(C(N)=O)=C(O)C[C@@H]3C[C@@H]1C2 [AL] | > 64
Cc1cc(N(C)C)c2c(c1O)C(=O)C1=C(O)[C@]3(O)C(=O)C(C(N)=O)=C(O)C[C@@H]3C[C@@H]1C2 [AM] | > 64
CN(C)c1cc(-c2ccccc2)c(O)c2c1C[C@H]1C[C@H]3CC(O)=C(C(N)=O)C(=O)[C@@]3(O)C(O)=C1C2=O [AN] | > 64
COCCOC(=O)c1cc(N(C)C)c2c(c1O)C(=O)C1=C(O)[C@]3(O)C(=O)C(C(N)=O)=C(O)C[C@@H]3C[C@@H]1C2 [AO] | > 64
CN(C)c1cc(C2=CCCCO2)c(O)c2c1C[C@H]1C[C@H]3CC(O)=C(C(N)=O)C(=O)[C@@]3(O)C(O)=C1C2=O [AP] | > 64
CC(C)c1noc(-c2cc(N(C)C)c3c(c2O)C(=O)C2=C(O)[C@]4(O)C(=O)C(C(N)=O)=C(O)C[C@@H]4C[C@@H]2C3)n1 [AR] | > 64
CN(C)c1cc(-c2ccnn2C)c(O)c2c1C[C@H]1C[C@H]3CC(O)=C(C(N)=O)C(=O)[C@@]3(O)C(O)=C1C2=O [AS] | > 64

Tested on: collagen-induced arthritis (CIA) in male DBA/1 mice
Test: CIA model, Example 3 (cumulative scores vs untreated controls)
Format: in vivo
Conditions: Mus musculus; Dose 6 mg/kg
Description: The CIA model data were acquired according to the following protocol: • 1. Male DBA/1 mice were anaesthetized by i.p. injection of ketamine/xylazine (1.25 mg/ml:0.25 mg/ml, 100 μl/mouse). • 2. Anaesthetized mice were immunized intradermally at the base of the tail with 0.1 or 0.2 ml of an emulsion composed of 100 or 200 μg bovine type II collagen in Complete Freund's Adjuvant (50 μl/spot x 2 or 4 spots). • 3. At day 21 after the immunization, mice received an intradermal boost of 100 μl of an emulsion composed of 100 μg bovine type II collagen in Incomplete Freund's Adjuvant (50 μl/spot x 2 spots) • 4. After onset of disease symptoms (usually 3-4 days after boost), tetracycline derivatives were administered daily into mice via intraperitoneal or oral routes for 8 to 15 days. Methotrexate (12 mg/kg/day) or dexmethasone (4 mg/kg/day) was used as a control for inflammation suppression. • 5. The disease severity was scored daily for 8-15 days after the appearance of the symptoms. Disease severity was graded as following: • a. Visual clinical score for the presence of inflammation in the fingers/toes of the forepaws and hindpaws: • 1. Erythema and mild swelling confined to the mid-foot (tarsals) or ankle joint • 2. Erythema and mild swelling extending from the ankle to the mid-foot • 3. Erythema and moderate swelling extending from the ankle to the metatarsal joints • 4. Erythema and severe swelling encompassing the ankle, foot, and digits. • b. Clinical swelling score for the presence of paw edema in the forepaws and hindpaws: • Paw thickness was measured daily by an engineering micrometer after isofluorane inhalation or ketamine/xylazine (1.25 mg/ml:0.25 mg/ml, 100 μl/mouse) i.p. injection.
Daily scores and paw swelling measurements for each treatment group of mice were added over the total observation period to obtain a cumulative score. Cumulative scores were compared between untreated controls and treated groups to determine tetracycline-induced inhibition.

SMILES | inhibition in vivo at 6 mg/kg [%]
Cc1cc(N(C)C)c2c(c1O)C(=O)C1=C(O)[C@]3(O)C(=O)C(C(N)=O)=C(O)C[C@@H]3C[C@@H]1C2 [AM] | 36

Same assay, conditions: Mus musculus; Dose 12 mg/kg

SMILES | inhibition in vivo at 12 mg/kg [%]
CN(C)c1cc(-c2cccnc2)c(O)c2c1C[C@H]1C[C@H]3CC(O)=C(C(N)=O)C(=O)[C@@]3(O)C(O)=C1C2=O [AE] | 65
CCC(=O)c1cc(N(C)C)c2c(c1O)C(=O)C1=C(O)[C@]3(O)C(=O)C(C(N)=O)=C(O)C[C@@H]3C[C@@H]1C2 [AL] | 31
Cc1cc(N(C)C)c2c(c1O)C(=O)C1=C(O)[C@]3(O)C(=O)C(C(N)=O)=C(O)C[C@@H]3C[C@@H]1C2 [AM] | 66
CN(C)c1cc(-c2ccccc2)c(O)c2c1C[C@H]1C[C@H]3CC(O)=C(C(N)=O)C(=O)[C@@]3(O)C(O)=C1C2=O [AN] | 49
CN(C)c1cc(-c2ccnn2C)c(O)c2c1C[C@H]1C[C@H]3CC(O)=C(C(N)=O)C(=O)[C@@]3(O)C(O)=C1C2=O [AS] | 30

Same assay, conditions: Mus musculus; Dose 25 mg/kg

SMILES | inhibition in vivo at 25 mg/kg [%]
CCOC(=O)c1cc(N(C)C)c2c(c1O)C(=O)C1=C(O)[C@]3(O)C(=O)C(C(N)=O)=C(O)C[C@@H]3C[C@@H]1C2 [AA] | 41
CN(C)c1cc(-c2cnoc2)c(O)c2c1C[C@H]1C[C@H]3CC(O)=C(C(N)=O)C(=O)[C@@]3(O)C(O)=C1C2=O [AB] | 38
CN(C)c1cc(-c2ccn[nH]2)c(O)c2c1C[C@H]1C[C@H]3CC(O)=C(C(N)=O)C(=O)[C@@]3(O)C(O)=C1C2=O [AC] | 33
CO/N=C(/C)c1cc(N(C)C)c2c(c1O)C(=O)C1=C(O)[C@]3(O)C(=O)C(C(N)=O)=C(O)C[C@@H]3C[C@@H]1C2 [AD] | 30
CN(C)c1cc(-c2cccnc2)c(O)c2c1C[C@H]1C[C@H]3CC(O)=C(C(N)=O)C(=O)[C@@]3(O)C(O)=C1C2=O [AE] | 80
CN(C)c1cc(-c2ccco2)c(O)c2c1C[C@H]1C[C@H]3CC(O)=C(C(N)=O)C(=O)[C@@]3(O)C(O)=C1C2=O [AG] | 39
CN(C)c1cc(C(=O)NC(C)(C)C)c(O)c2c1C[C@H]1C[C@H]3CC(O)=C(C(N)=O)C(=O)[C@@]3(O)C(O)=C1C2=O [AH] | 59
CN(C)c1cc(C(=O)Nc2ccccc2)c(O)c2c1C[C@H]1C[C@H]3CC(O)=C(C(N)=O)C(=O)[C@@]3(O)C(O)=C1C2=O [AI] | 62
CN(C)c1cc(-c2nccs2)c(O)c2c1C[C@H]1C[C@H]3CC(O)=C(C(N)=O)C(=O)[C@@]3(O)C(O)=C1C2=O [AJ] | 39
CN(C)c1cc(C(=O)OCCO)c(O)c2c1C[C@H]1C[C@H]3CC(O)=C(C(N)=O)C(=O)[C@@]3(O)C(O)=C1C2=O [AK] | 24
CCC(=O)c1cc(N(C)C)c2c(c1O)C(=O)C1=C(O)[C@]3(O)C(=O)C(C(N)=O)=C(O)C[C@@H]3C[C@@H]1C2 [AL] | 62
Cc1cc(N(C)C)c2c(c1O)C(=O)C1=C(O)[C@]3(O)C(=O)C(C(N)=O)=C(O)C[C@@H]3C[C@@H]1C2 [AM] | 73
CN(C)c1cc(-c2ccccc2)c(O)c2c1C[C@H]1C[C@H]3CC(O)=C(C(N)=O)C(=O)[C@@]3(O)C(O)=C1C2=O [AN] | 65
COCCOC(=O)c1cc(N(C)C)c2c(c1O)C(=O)C1=C(O)[C@]3(O)C(=O)C(C(N)=O)=C(O)C[C@@H]3C[C@@H]1C2 [AO] | 52
CN(C)c1cc(C2=CCCCO2)c(O)c2c1C[C@H]1C[C@H]3CC(O)=C(C(N)=O)C(=O)[C@@]3(O)C(O)=C1C2=O [AP] | 63
CC(C)c1noc(-c2cc(N(C)C)c3c(c2O)C(=O)C2=C(O)[C@]4(O)C(=O)C(C(N)=O)=C(O)C[C@@H]4C[C@@H]2C3)n1 [AR] | 64
CN(C)c1cc(-c2ccnn2C)c(O)c2c1C[C@H]1C[C@H]3CC(O)=C(C(N)=O)C(=O)[C@@]3(O)C(O)=C1C2=O [AS] | 56
